Test results: patent publication US20200397784A1 (priority 2019, published 2020)
Where two headings read alike, the source gives them in different places. Marks after values point to notes of the source that are not given here.

What was measured:
[1] = tested on: influenza A/PR/8/34; experiment: Mouse influenza A model, combination of Compound (1) with zanamivir; type: in vivo; conditions: A/PR/8/34 mice, no Compound (1)
Experimental: Infected mice were treated with vehicle or escalating dose levels of Form A of the Compound (1) HCl hemihydrate salt Form A (hereinafter in this example simply Compound (1)) in combination with zanamivir starting 24 hours prior to influenza A challenge with 5×10^3 TCID50 A/PR/8/34. The influenza A challenge and Compound (1) suspensions were prepared in a similar manner as described above in Example 8. The challenged mice were treated once IN (intranasal) with zanamivir at 0.3 mg/kg, 1 mg/kg or 3 mg/kg 24 hours prior to IN challenge with 5×10^3 TCID50 A/PR/8/34, and with Compound (1) at 0.1 mg/kg, 0.3 mg/kg, or 1 mg/kg BID for 10 days starting −2 hours prior to the challenge with 5×10^3 TCID50 A/PR/8/34.
Efficiency quotient, a composite measure of survival, bodyweight loss and lung function (% survival/(% body weight loss at Day 8)*(Penh at Day 6)) is summarized in Table 24B.

[2] = tested on: A/Puerto Rico/8/34; type: cell-based, influenza A virus
[3] = tested on: A/Puerto Rico/8/34
[4] = tested on: influenza virus A/PR/8/34; experiment: Mouse influenza A model, Compound (1) with or without Oseltamivir, treatment +48 h; type: in vivo, Balb/c mice
[5] = tested on: influenza virus B/Mass/3/66; experiment: Mouse influenza B model, Compound (1) with or without Oseltamivir; type: in vivo, Balb/c mice
[6] = tested on: Influenza A/California/04/2009 (pndH1N1) virus; type: in vivo; conditions: pndH1N1 BALB/c mice
[7] = tested on: Influenza A/Victoria/3/75 (H3N2) virus; type: in vivo, BALB/c mice
[8] = tested on: Influenza A/Vietnam/1203/2004 (H5N1) virus; type: in vivo, BALB/c mice; conditions: treatment +48 h
[9] = tested on: influenza A virus; type: in vivo, mice
[10] = tested on: influenza A; experiment: Mouse influenza A model: lung viral titer; type: in vivo, mice; conditions: study day 6
Experimental: The effectiveness of Compound (1) to reduce lung viral titers was investigated. Mice were infected with influenza A and 24 h later vehicle, oseltamivir (10 mg/kg BID) or Compound (1) (3, 10, 30 mg/kg BID) was administered until lung harvest and viral burden determination on day 6 (Table 27).

[11] = influenza A/PR/8/34 mice, Oseltamivir 10 mg/kg PO BID 10 days alone, from +48 h
[12] = influenza B/Mass/3/66 mice, Oseltamivir 10 mg/kg PO BID 10 days alone
[13] = Oseltamivir 10 mg/kg BID prophylaxis
[14] = 10 mg/kg twice a day for 10 days starting 2 hours prior to virus exposure
[15] = 10 mg/kg twice a day, prophylaxis
[16] = 10 mg/kg twice a day for 10 days
[17] = treatment start +24 h, 10 mg/kg BID
[18] = treatment start +48 h, 10 mg/kg BID
[19] = treatment start +72 h, 10 mg/kg BID

Compound: CC(=O)N[C@H]1[C@H]([C@H](O)[C@H](O)CO)OC(C(=O)O)=C[C@@H]1N=C(N)N [Zanamivir, zanamivir]
- Survival Rate ([1]; Zanamivir 0.3 mg/kg IN x 1, 24 h prior to infection): 37.5
- Efficiency Quotient (% survival/(% body weight loss at Day 8)*(Penh at Day 6)) ([1]; Zanamivir 0.3 mg/kg IN x 1): 0.44
- Survival Rate ([1]; Zanamivir 1 mg/kg IN x 1, 24 h prior to infection): 50
- Efficiency Quotient (% survival/(% body weight loss at Day 8)*(Penh at Day 6)) ([1]; Zanamivir 1 mg/kg IN x 1): 0.73
- Survival Rate ([1]; Zanamivir 3 mg/kg IN x 1, 24 h prior to infection): 62.5
- Efficiency Quotient (% survival/(% body weight loss at Day 8)*(Penh at Day 6)) ([1]; Zanamivir 3 mg/kg IN x 1): 0.73
- synergy volume [2]: 268
- C.I. (combination index) [3]: 0.64

Compound: CCOC(=O)C1=C[C@@H](OC(CC)CC)[C@H](NC(C)=O)[C@@H](N)C1 [Oseltamivir, oseltamivir]
- protection from death, BW loss, lung function ([4]; Oseltamivir 10 mg/kg alone, +48 hours post influenza A infection): did not protect from death
- Penh (Day 3) [4, 11]: 2.36
- Survival (21 days) [4, 11]: 0%
- Weight Loss (Day 8) [4, 11]: 32.0%
- protection from death, BW loss, lung function ([5]; Oseltamivir 10 mg/kg alone, 2 hours prior to influenza B infection): complete protection from death
- Penh (Day 6/7) [5, 12]: 1.08
- Survival (21 days) [5, 12]: 100%
- Weight Loss (Day 8) [5, 12]: 12.8%
- Mean Lung Parameters (Day 6): Virus Titer [6, 13]: 7.9 ± 0.2 Log10 CCID50/g
- Mean Lung Parameters (Day 6): Weight [6, 13]: 178 ± 28 mg
- Mean Lung Parameters (Day 6): Score ([6]; Oseltamivir 10 mg/kg BID prophylaxis, hemorrhage score 0-4): 1.0 ± 0.0^e
- Survivors/Total ([6]; Oseltamivir 10 mg/kg twice a day for 10 days starting 2 hours prior to virus exposure): 10/10***
- MDD ± SD (mean day of death of mice that died on or before day 21) [7, 14]: 7.0 days
- Survivors/Total [7, 14]: 9/10***
- Mean Lung Parameters (Day 6): Virus Titer [7, 15]: 7.0 ± 0.3 Log10 CCID50/g
- Mean Lung Parameters (Day 6): Weight [7, 15]: 218 ± 24 mg
- Mean Lung Parameters (Day 6): Score ([7]; 10 mg/kg twice a day, prophylaxis, lung hemorrhage score 0-4): 1.7 ± 1.1
- MDD ± SD (mean day of death of mice that died on or before day 21) [8, 16]: 9.5 ± 1.2 days
- Survivors/Total [8, 16]: 0/10
- Mean Lung Parameters (Day 6): Virus Titer ([8]; 10 mg/kg twice a day): 5.22 ± 0.38 Log10 CCID50/g
- survival ([9]; mouse influenza A model, oseltamivir 10 mg/kg BID, same experiment): All of the oseltamivir-administered mice survived
- protection with delayed dosing ([9]; mouse, in vivo): only provided complete protection when dosing was initiated 24 h or less
- survival ([9]; mouse, in vivo): All of the oseltamivir-administered mice survived
- Percent Survival ([9]; mouse, in vivo, 10 mg/kg): 100%
- Percent Body Weight Loss on Study Day 8 [9, 17]: −28.9%
- Percent Survival [9, 17]: 100%
- Percent Body Weight Loss on Study Day 8 [9, 18]: −31.1%
- Percent Survival [9, 18]: 80%
- Percent Body Weight Loss on Study Day 8 [9, 19]: −31.3%
- Percent Survival [9, 19]: 0%
- Percent Body Weight Loss on Study Day 8 ([9]; treatment start −2 h, 10 mg/kg BID): −19.1%
- Lung Viral Titer ([10]; Study 1, 10 mg/kg BID from 24 h post infection for 5 days): 6.05 Log10 TCID50
- Log10 Reduction vs. Vehicle ([10]; Study 1, 10 mg/kg BID from 24 h post infection): −0.15 Log10
- C.I. (combination index) [3]: 0.58

Compound: CCC(CC)O[C@@H]1C=C(C(=O)O)C[C@H](N)[C@H]1NC(C)=O [oseltamivir carboxylate]
- synergy volume ([2]; in combination with Compound (1), Bliss independence method, […]): 312

Compound: NC(=O)c1nc(F)c[nH]c1=O [favipiravir]
- synergy volume [2]: 317
- C.I. (combination index) [3]: 0.89
